Results as given in the NIST ThermoML archive (doi:10.1021/je100256w).

Assay: cn = amount concentration of the nth substance listed, in mol/dm3
Conditions: 101 kPa, Liquid, Dip Cell

CCCCCCCCCCCCCCCC[N+](C)(C)CCCCC[N+](C)(C)CCCCCCCCCCCCCCCC.[Br-].[Br-] + O
electrical conductivity [S/m]
Conditions | 298 K | 303 K | 308 K | 313 K
c1 = 3.3e-06 | 6.8e-05 | 6.9e-05 | 7e-05 | 7.1e-05
c1 = 6.6e-06 | 0.000129 | 0.000135 | 0.000148 | 0.00015
c1 = 9.9e-06 | 0.00021 | 0.000219 | 0.00023 | 0.000236
c1 = 1.32e-05 | 0.000279 | 0.00029 | 0.000292 | 0.000308
c1 = 1.64e-05 | 0.000358 | 0.000376 | 0.000385 | 0.000396
c1 = 1.96e-05 | 0.000418 | 0.000432 | 0.000442 | 0.000456
c1 = 2.28e-05 | 0.000495 | 0.000505 | 0.000514 | 0.000519
c1 = 2.6e-05 | 0.000557 | 0.000564 | 0.000579 | 0.000584
c1 = 2.91e-05 | 0.000634 | 0.000646 | 0.000659 | 0.000684
c1 = 3.23e-05 | 0.000684 | 0.000699 | 0.000715 | 0.000732
c1 = 3.54e-05 | 0.000746 | 0.000766 | 0.000779 | 0.000789
c1 = 3.85e-05 | 0.000803 | 0.000816 | 0.000826 | 0.00087
c1 = 4.15e-05 | 0.000873 | 0.000873 | 0.000896 | 0.000945
c1 = 4.46e-05 | 0.000935 | 0.000935 | 0.000956 | 0.000998
c1 = 4.76e-05 | 0.001 | 0.001 | 0.00101 | 0.00108
c1 = 5.06e-05 | 0.00103 | 0.00105 | 0.00106 | 0.00112
c1 = 5.36e-05 | 0.00109 | 0.00113 | 0.00113 | 0.00115
c1 = 5.66e-05 | 0.00113 | 0.00116 | 0.00116 | 0.00121
c1 = 5.96e-05 | 0.00119 | 0.00122 | 0.00123 | 0.00125
c1 = 6.25e-05 | 0.00123 | 0.00127 | 0.00129 | 0.00129
c1 = 6.54e-05 | 0.00128 | 0.00132 | 0.00135 | 0.00135
c1 = 6.83e-05 | 0.00133 | 0.00137 | 0.00138 | 0.0014
c1 = 7.12e-05 | 0.00137 | 0.00142 | 0.00145 | 0.00144
c1 = 7.41e-05 | 0.00142 | 0.00146 | 0.00147 | 0.00148
c1 = 7.69e-05 | 0.00144 | 0.00149 | 0.0015 | 0.00152

CCCCCCCCCCCCCCCC[N+](C)(C)CCCC[N+](C)(C)CCCCCCCCCCCCCCCC.[Br-].[Br-] + O
electrical conductivity [S/m]
Conditions | 298 K | 303 K | 308 K | 313 K
c1 = 3.3e-06 | 6.6e-05 | 6.6e-05 | 6.7e-05 | 6.8e-05
c1 = 6.6e-06 | 0.000121 | 0.000134 | 0.00015 | 0.00016
c1 = 9.9e-06 | 0.000187 | 0.000196 | 0.000207 | 0.000227
c1 = 1.32e-05 | 0.000256 | 0.000274 | 0.00029 | 0.000301
c1 = 1.64e-05 | 0.000326 | 0.000336 | 0.000346 | 0.000372
c1 = 1.96e-05 | 0.000397 | 0.000407 | 0.000429 | 0.000449
c1 = 2.28e-05 | 0.000463 | 0.000486 | 0.000507 | 0.000527
c1 = 2.6e-05 | 0.000539 | 0.000539 | 0.000559 | 0.000575
c1 = 2.91e-05 | 0.000615 | 0.000626 | 0.000642 | 0.000666
c1 = 3.23e-05 | 0.00067 | 0.000679 | 0.000695 | 0.000715
c1 = 3.54e-05 | 0.000736 | 0.000746 | 0.000766 | 0.000787
c1 = 3.85e-05 | 0.000789 | 0.000799 | 0.000799 | 0.000851
c1 = 4.15e-05 | 0.000856 | 0.000866 | 0.000889 | 0.000901
c1 = 4.46e-05 | 0.000916 | 0.000926 | 0.000946 | 0.000966
c1 = 4.76e-05 | 0.000962 | 0.000985 | 0.001 | 0.00103
c1 = 5.06e-05 | 0.001 | 0.00102 | 0.00105 | 0.00108
c1 = 5.36e-05 | 0.00105 | 0.00106 | 0.00108 | 0.0011
c1 = 5.66e-05 | 0.0011 | 0.00112 | 0.00113 | 0.00115
c1 = 5.96e-05 | 0.00116 | 0.00118 | 0.0012 | 0.00122
c1 = 6.25e-05 | 0.00121 | 0.00123 | 0.00125 | 0.00127
c1 = 6.54e-05 | 0.00126 | 0.00126 | 0.00128 | 0.00133
c1 = 6.83e-05 | 0.0013 | 0.00131 | 0.00133 | 0.00137
c1 = 7.12e-05 | 0.00134 | 0.00137 | 0.00138 | 0.0014
c1 = 7.41e-05 | 0.0014 | – | – | –
